Data: patent US20130324522A1, “INSECT ODORANT RECEPTOR ANTAGONISTS” (THE ROCKEFELLER UNIVERSITY, priority 2010, published 2013)

Tests used:
[1] = system: Aedes aegypti; experiment: Mosquito two-port olfactometer behavioral assay; type: in vivo; details: 3.5 mg dose; female mosquitoes, human hand odor and CO2, two-port olfactometer
Procedure: Female Aedes aegypti Orlando mosquitoes (8-11 days old) were used in this assay. Larvae were hatched from dried egg papers and were reared in pans with deionized water supplemented with two tablets of fish food “TetraMin®” from Tetra every day. Pupae were transferred to cages and maintained before and after eclosion at 25° C. and 70-80% humidity with a 12 hr light: 12 hr dark photocycle. Adults were fed a 10% corn syrup solution and were free to mate with each other. One day prior to the assay, females were separated and placed into starvation cartridges (each containing 20 mosquitoes) without any food or water. The cartridges were placed at 25° C. and 70-80% humidity overnight (>l4hr).
A two-port olfactometer, adapted from Gouck (Gouck, H. K. Host preferences of various strains of Aedes aegypti and Aedes simpsoni as determined by an olfactometer. Bull. World Health Org. 47:680-683, 1972) was used to assess the repellent characteristic of small compounds by measuring mosquito host-seeking preference to human odor with a compound or its solvent. […] After 8 minutes, the number of mosquitoes in the trapping chambers (“attracted”) and main compartment (“not-attracted”) was counted. Data were expressed as % attracted/% activated. Significance was assessed using the analysis of variance, ANOVA. […] Significance was assessed using the Mann-Whitney U-test. […]

[2] = system: ab5 neuron that expresses the Or47a/Or83b receptor; experiment: Single sensillum recordings of fly olfactory neurons; type: in vivo, Drosophila melanogaster
Procedure: Female flies (Drosophila melanogaster) of the w^1118 genotype were immobilized by inserting single adult flies into the wide end of a 200 μL pipette tip, and mounting this on a microscope cover glass with a piece of wax. Antennal olfactory neurons of immobilized flies were subjected to extracellular recording using a Syntech 10x AC probe connected to a Syntech IDAC4 amplifier. The recording electrode was inserted into the ab5 sensillum, which contains two olfactory sensory neurons (OSNs), and the reference electrode was placed into the eye. Action potentials in the OSNs induced by odorant stimulation were recorded. 15 μL of odorant [3-methyl-thio-1-propanol; diluted (v/v) in paraffin oil (10^−5 to 10^−3 dilution)], was applied to a filter strip, and 10 μL of test compounds, DEET, or solvent (100% ethanol) was applied on a second filter strip. Both filter strips were placed into a Pasteur glass pipette connected to the Syntech CS55 stimulus device, and applied to the fly antenna for 1 sec. Corrected spike increases were computed by subtracting the average spontaneous activity in 1 sec before odorant stimulus from the average activity during the stimulus.
The effect of selected compounds on odor-evoked action potentials was measured from the ab5 antennal sensillum, which houses the olfactory neuron that expresses the Or47a/Or83b receptor.

[3] = system: Drosophila melanogaster; experiment: Fly two-choice behavior assay; type: in vivo
Procedure: Male flies (Drosophila melanogaster) of the w^1118 genotype were “wet-starved” for 24 hours in plastic culture vials lacking food but supplemented with wet cotton plugs on the bottom. After the 24 hour fasting period before the assay, flies were placed into a two-choice behavior chamber. This two-choice chamber consists of one 15 cm Petri dish with two round holes (2.2 cm diameter) that were punched along the midline at an equal distance (2.9 cm) from the rim. Two small plastic vials were connected to the dish and plugged with rigid cotton plugs perforated with 1 mL pipette tips. The bottom of each trap vial was humidified with the same cotton plugs used to plug the vial by soaking the plug in deionized water for a few seconds until it was fully wetted. Each trap contained a small filter paper strip with 10 μL of either water or pure odor (3-methyl-thio-1-propanol). Flies could enter one of the two traps through a plastic pipette tip (1 mL) inserted into top of each vial. 10 μL of RU-14, or solvent (100% ethanol) or DEET was placed on small circular filter paper, and introduced into the pipette tips at the entrance. […] After 24 hours, flies were counted and a response was computed by calculating the percent of flies in each trap. Significance was assessed using the Mann-Whitney U-test. […]

CN(Cc1nccn1Cc1c(F)cccc1Cl)C(=O)C1CCCC1 [RU-I5]
inhibition of host-seeking behavior [1]: significant inhibition
suppression of 3-methyl-thio-1-propanol (3MTP)-evoked action potentials in the ab5 neuron ([2]; 10 mg dose on a filter paper): inhibits responses elicited by 10^−3 to 5×10^−5 dilutions of 3MTP

O=C(C1CCCC1)N(Cc1nccn1CCc1c(F)cccc1Cl)C1CC1 [RU-I2]
inhibition of host-seeking behavior [1]: significant inhibition
suppression of 3-methyl-thio-1-propanol (3MTP)-evoked action potentials in the ab5 neuron ([2]; 3.5 mg dose on a filter paper): inhibits responses elicited by 10^−4 to 10^−5 dilutions of 3MTP
suppression of 3-methyl-thio-1-propanol (3MTP)-evoked action potentials in the ab5 neuron ([2]; 10 mg dose on a filter paper): inhibits responses elicited by 10^−3 to 10^−5 dilutions of 3MTP

CCN(CC)C(=O)c1cccc(C)c1 [DEET, N,N-diethyl-m-toluamide, reference compound]
suppression of 3MTP attraction ([3]; range of 1 mg to 10 mg): significant suppression

C=CCN(Cc1nccn1Cc1cccc(F)c1)C(=O)c1ccccc1F [RU-I1]
suppression of 3-methyl-thio-1-propanol (3MTP)-evoked action potentials in the ab5 neuron ([2]; 3.5 mg dose on a filter paper): inhibits responses elicited by 5×10^−4 to 10^−5 dilutions of 3MTP
suppression of 3-methyl-thio-1-propanol (3MTP)-evoked action potentials in the ab5 neuron ([2]; 10 mg dose on a filter paper): inhibits responses elicited by 10^−3 to 10^−5 dilutions of 3MTP

Fc1cccc(Cl)c1Cn1ccnc1CN(CC1CCCC1)C1CC1 [RU-I4]
suppression of 3MTP attraction ([3]; 3.5 mg dose): significant suppression
